Experimental data: patent US20250346592A1 (Celgene Corporation, priority 2022, published 2025)

Key:
hPAD4 enzyme [1] = target: T1, hPAD4 enzyme (Homo sapiens (Human), UniProt Q9UM07); assay: RFMS1 assay (RapidFire mass spectrometry, BAEE substrate); format: biochemical; details: 5 nM hPAD4, 250 μM BAEE, 30 min preincubation at 37° C., 90 min reaction; read-out: RFMS 1 IC50
Experimental: Compounds were solubilized in 100% DMSO to achieve a 10 mM compound concentration. Compound stock solutions were stored at RT. A series of dilutions were prepared in DMSO and mixed 8 times with 20 μL mixing volume. Final top concentration of compound in the assay is 50 μM. Final assay conditions were as follows: • Reaction volume: 26 μl • Assay buffer: 25 mM hepes, pH 7.5, 5 mM NaCl, 1 mM DTT, 0.2 mg/ml BSA, 0.01% CHAPS, 50 µM Calcium, and 5 μM TPEN • Final concentrations: 5 nM hPAD4 enzyme, 250 µM BAEE, and 0.5% DMSO • Total incubation time: 30 mins compound and enzyme preincubation at 37° C., 90 min enzyme/substrate reaction, 30 min reaction with phenyl glyoxal at 37° C. • Stop solution: 40 μl 5% TCA in ACN • 0.13 μL of compound solution was added to 13 μL of 10 nM PAD4 in assay buffer. After […] min 13 μl of 500 µM of BAEE was added in 25 mM hepes, pH 7.5, 5 mM NaCl, 1 mM DTT, 0.2 mg/ml BSA, 0.01% CHAPS, 50 μM Calcium, 5 μM TPEN was added and the reaction incubated for 90 min at 37° C. The enzymatic reaction was quenched by addition of 15 μl of 6.1N TCA, 100% Final Concentration is 20%, 35 μl of 8.5 mM phenyl glyoxal (final concentration 4 mM) is then added and the reaction is incubated for 30 min at 37° C.
After 30 minutes the plates are spun down to remove all precipitate. The enzyme reaction was quenched with an equal volume of methanol containing internal standard (modified citrulline). Samples were loaded onto the Rapid Fire RF300 system (Agilent) wherein they were first sipped for 1000 ms and then directly loaded to a C18 separations cartridge using a mixture of acetonitrile containing 0.01% formic acid for 3000 ms desalting. The flow rate of the mobile phase was 1.5 ml/min. Once the samples were eluted from the cartridge, a mobile phase of acetonitrile containing 0.01% formic acid was used to move the samples into the mass spectrometer for 4000 ms at a flow rate of 1.25 ml/min/Sciex API5500 triple quadrupole mass spectrometer (Applied Biosystems) equipped with ESI was used to analyze the peptidyl citrulline and internal standard ions.
MRM transition of product and internal standard were monitored at m/z 424.5 to 350.4 and m/z 293 to 247 respectively. The dwell time for each transition was set at 200 ms, and the ESI voltage was used at 5500 with a source temperature of 400° C. Extracted ion peaks for each transition were integrated using the Rapid Fire Integrator software. Peak area of analyte was normalized with internal standard.).
Compounds having an activity designated as “A” provided an IC50≤10 nM; compounds having an activity designated as “B” provided an IC50 11-100 nM; compounds having an activity designated as “C” provided an IC50 101-500 nM; compounds having an activity designated as “D” provided an IC50 501-1000 nM; compounds having an activity designated as “E” provided an IC50>1000 nM.

hPAD4 enzyme [2] = target: T1, hPAD4 enzyme; assay: RFMS2 assay (RapidFire mass spectrometry, TSTGGRQGSHH peptide substrate); format: biochemical; details: 35 nM recombinant human PAD4, 500 μM TSTGGRQGSHH peptide, 30 minutes at room temperature; read-out: RFMS 2 IC50
How it was run: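 IC50 derived from RapidFire LC-MS/MS (positive ESI MRM) of substrate versus product after a 30 min room-temperature reaction stopped with 10% formic acid. Reaction contained 35 nM human PAD4, 500 μM peptide, 2 mM CaCl2, 5 mM DTT at pH 7.4, and compounds diluted 3-fold from 20 μM.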

T1 sequence (Q9UM07 whole entry): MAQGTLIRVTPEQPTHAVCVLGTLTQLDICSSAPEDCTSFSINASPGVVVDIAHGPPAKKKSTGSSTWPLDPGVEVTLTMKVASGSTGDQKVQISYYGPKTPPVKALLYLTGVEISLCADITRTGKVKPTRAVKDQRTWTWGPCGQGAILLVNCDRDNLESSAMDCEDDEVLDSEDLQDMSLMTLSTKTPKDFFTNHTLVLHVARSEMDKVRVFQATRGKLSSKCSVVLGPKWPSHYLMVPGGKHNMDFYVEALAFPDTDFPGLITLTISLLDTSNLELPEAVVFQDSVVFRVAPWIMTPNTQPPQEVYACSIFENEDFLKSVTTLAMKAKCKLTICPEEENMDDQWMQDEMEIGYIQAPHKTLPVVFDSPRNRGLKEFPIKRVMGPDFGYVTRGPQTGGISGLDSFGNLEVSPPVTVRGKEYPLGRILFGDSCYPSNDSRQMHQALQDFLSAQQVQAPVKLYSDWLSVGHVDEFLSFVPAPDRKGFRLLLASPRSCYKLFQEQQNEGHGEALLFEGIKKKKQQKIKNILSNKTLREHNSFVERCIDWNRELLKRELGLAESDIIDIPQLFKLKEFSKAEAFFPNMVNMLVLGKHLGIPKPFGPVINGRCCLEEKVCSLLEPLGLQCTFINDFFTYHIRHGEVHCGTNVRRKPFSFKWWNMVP

SMILES	IC50 (hPAD4 enzyme [1])	IC50 (hPAD4 enzyme [2])
Cn1c(-c2cc3cccc(OC(F)Cn4ccnc4)c3n2CC2CC2)nc2cc3c(cc21)CCN(C[C@H](N)CF)C3=O (single isomer, unassigned) [Example 226a]	≤ 10 nM	–
Cc1cc(N2CCCS2(=O)=O)ccc1-c1ccc2cc(-c3nc4cc5c(cc4n3C)CCN(C[C@H](N)CF)C5=O)n(CC3CC3)c2n1 [Example 57, (S)-6-(2-amino-3-fluoropropyl)-2-(1-(cyclopropylmethyl)-6-(4-(1,1-dioxidoisothiazolidin-2-yl)-2-methylphenyl)-1H-pyrrolo[2,3-b]pyridin-2-yl)-1-methyl-1,6,7,8-tetrahydro-5H-imidazo[4,5-g]isoquinolin-5-one]	11 to 100 nM	–
C[C@H](COc1cccc2cc(-c3nc4cc5c(cc4n3C)CCN(C[C@H](N)CF)C5=O)n(CC3CC3)c12)n1cnc(F)c1 [Example 217, 6-((S)-2-amino-3-fluoropropyl)-2-(1-(cyclopropylmethyl)-7-((R)-2-(4-fluoro-1H-imidazol-1-yl)propoxy)-1H-indol-2-yl)-1-methyl-1,6,7,8-tetrahydro-5H-imidazo[4,5-g]isoquinolin-5-one]	≤ 10 nM	–
Cn1c(-c2cc3cccc(OCCn4ncnc4C#N)c3n2CC2CC2)nc2cc3c(cc21)CCN(C[C@H](N)CF)C3=O [Example 225, (S)-1-(2-((2-(6-(2-amino-3-fluoropropyl)-1-methyl-5-oxo-5,6,7,8-tetrahydro-1H-imidazo[4,5-g]isoquinolin-2-yl)-1-(cyclopropylmethyl)-1H-indol-7-yl)oxy)ethyl)-1H-1,2,4-triazole-5-carbonitrile]	–	> 1000 nM
COc1ccc2cc(-c3nc4cc5c(c(F)c4n3C)CCN(C[C@H](N)CF)C5=O)n(CC3CC3)c2c1 [Example 239, (S)-6-(2-amino-3-fluoropropyl)-2-(1-(cyclopropylmethyl)-6-methoxy-1H-indol-2-yl)-9-fluoro-1-methyl-1,6,7,8-tetrahydro-5H-imidazo[4,5-g]isoquinolin-5-one]	–	501 to 1000 nM

Other lines, results leading:

IC50 (hPAD4 enzyme [1])	IC50 (hPAD4 enzyme [2])	SMILES
11 to 100 nM	–	Cc1cc(N2CC(C)(C)OC2=O)ccc1-c1ccc2cc(-c3nc4cc5c(cc4n3C)CCN(C[C@H](N)CF)C5=O)n(CC3CC3)c2n1 [Example 58, (S)-3-(4-(2-(6-(2-amino-3-fluoropropyl)-1-methyl-5-oxo-5,6,7,8-tetrahydro-1H-imidazo[4,5-g]isoquinolin-2-yl)-1-(cyclopropylmethyl)-1H-pyrrolo[2,3-b]pyridin-6-yl)-3-methylphenyl)-5,5-dimethyloxazolidin-2-one]
11 to 100 nM	–	CCc1nc(N2CCOC2=O)ccc1-c1ccc2cc(-c3nc4cc5c(cc4n3C)CCN(C[C@H](N)CF)C5=O)n(CC3CC3)c2n1 [Example 61, (S)-3-(5-(2-(6-(2-amino-3-fluoropropyl)-1-methyl-5-oxo-5,6,7,8-tetrahydro-1H-imidazo[4,5-g]isoquinolin-2-yl)-1-(cyclopropylmethyl)-1H-pyrrolo[2,3-b]pyridin-6-yl)-6-ethylpyridin-2-yl)oxazolidin-2-one]
11 to 100 nM	–	COc1cccc2cc(-c3nc4cc5c(cc4n3C)CCN(C[C@H](N)CF)C5=O)n(CCOC(F)F)c12 [Example 135, (S)-6-(2-amino-3-fluoropropyl)-2-(1-(2-(difluoromethoxy)ethyl)-7-methoxy-1H-indol-2-yl)-1-methyl-1,6,7,8-tetrahydro-5H-imidazo[4,5-g]isoquinolin-5-one]
–	101 to 500 nM	Cn1c(-c2cc3cccc(OCCn4cnc(C#N)n4)c3n2CC2CC2)nc2cc3c(cc21)CCN(C[C@H](N)CF)C3=O [Example 224, (S)-1-(2-((2-(6-(2-amino-3-fluoropropyl)-1-methyl-5-oxo-5,6,7,8-tetrahydro-1H-imidazo[4,5-g]isoquinolin-2-yl)-1-(cyclopropylmethyl)-1H-indol-7-yl)oxy)ethyl)-1H-1,2,4-triazole-3-carbonitrile]
